Like-named read-outs stand apart in the source and are kept apart here.

The text below walks through data of patent publication EP2837626A1, “Indolinone derivatives as GRK5 modulators” (Max-Planck-Gesellschaft zur Förderung der Wissenschaften …, priority 2013, dated 2015).

In one experiment the target is T1, full length GRK5 (Homo sapiens, UniProt P34947).
T1 construct: 6/2 fold concentrated full length GRK5 (Millipore, #14-714) in reaction buffer is added to each well; purchased Millipore 14-714
Description: IC50 determination of compounds inhibiting GRK5 by ADP Glo Kinase Assay technology (Promega). The class given is biochemical. For orientation: ADP-Glo turns the ADP formed in a reaction into a luminescent signal.

Another experiment deals with T2, GRK5 (Homo sapiens, UniProt P34947).
T2 construct: purchased Millipore
Description: IC50 determination of compounds inhibiting GRK5 by Millipore KinaseProfiler (radiometric filtration binding assay). The class given is biochemical. Particulars: 2 mg/mL casein, 40 minutes at room temperature. How it is done:
IC50 values are determined by a radiometric based filtration binding assay, namely Millipore KinaseProfiler™. GRK5 is incubated with 8 mM MOPS pH 7.0, 0.2 mM EDTA, 2 mg/mL casein, 10 mM MgAcetate and […] (specific activity approx. 500 cpm/pmol, concentration as required). The reaction is initiated by the addition of the MgATP mix. After incubation for 40 minutes at room temperature, the reaction is stopped by the addition of 3 % phosphoric acid solution. 10 µL of the reaction is then spotted onto a P30 filtermat and washed three times for 5 minutes in 75 mM phosphoric acid and once in methanol prior to drying and scintillation counting.

Setting [1] is: 20 nM GRK5, 18.7 µM ATP, 10 µM casein, 12 concentrations, triplicates, read-out: GRK5 IC50.

T1 sequence (P34947 whole entry): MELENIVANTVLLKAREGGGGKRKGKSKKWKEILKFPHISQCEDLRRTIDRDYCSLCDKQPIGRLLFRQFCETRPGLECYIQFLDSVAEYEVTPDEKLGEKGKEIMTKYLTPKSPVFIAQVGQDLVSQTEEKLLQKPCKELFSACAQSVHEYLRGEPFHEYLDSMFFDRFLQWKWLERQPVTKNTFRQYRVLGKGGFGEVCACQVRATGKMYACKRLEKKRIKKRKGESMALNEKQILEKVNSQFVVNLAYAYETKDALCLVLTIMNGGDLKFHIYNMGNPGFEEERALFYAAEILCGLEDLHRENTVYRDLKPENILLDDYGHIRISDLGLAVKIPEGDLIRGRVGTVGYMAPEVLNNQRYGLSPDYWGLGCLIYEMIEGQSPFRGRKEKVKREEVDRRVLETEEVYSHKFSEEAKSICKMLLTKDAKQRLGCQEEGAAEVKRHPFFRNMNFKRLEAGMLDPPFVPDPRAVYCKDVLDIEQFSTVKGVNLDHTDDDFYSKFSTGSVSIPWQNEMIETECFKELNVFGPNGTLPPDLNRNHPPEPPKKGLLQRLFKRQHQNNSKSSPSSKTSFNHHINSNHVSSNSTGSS
T2 sequence (P34947 whole entry): as above

`CCC(NC(=O)c1ccc2c(c1)/C(=C/c1[nH]c(C)c(C(=O)N3CCN(C)CC3)c1C)C(=O)N2)c1ccc(Cl)cc1` (stereo not drawn) [Compound 12, (3Z)-N-[1-(4-chlorophenyl)propyl]-3-({3,5-dimethyl-4-[(4-methylpiperazin-1-yl)carbonyl]-1H-pyrrol-2-yl}methylene)-2-oxoindoline-5-carboxamide]: the IC50 at full length GRK5 (setting [1]) and on GRK5 was under 5 µM each time.
In the case of `CC[C@@H](NC(=O)c1ccc2c(c1)/C(=C/c1[nH]c(C)c(C(=O)N3CCC(N4CCN(C)CC4)CC3)c1C)C(=O)N2)c1ccccc1` [Compound 53, (3Z)-3-[(3,5-dimethyl-4-{[4-(4-methylpiperazin-1-yl)piperidin-1-yl]carbonyl}-1H-pyrrol-2-yl)methylene]-2-oxo-N-[(1R)-1-phenylpropyl]indoline-5-carboxamide], the figures for the IC50 on full length GRK5 (setting [1]) and at GRK5 were 5 to 20 µM and under 5 µM, respectively.
For `Cc1[nH]c(/C=C2\C(=O)Nc3ccc(C(=O)N[C@H](C)c4cccc(Cl)c4)cc32)c(C)c1C(=O)N1CCCCC1` [Compound 55, (3Z)-N-[(1R)-1-(3-chlorophenyl)ethyl]-3-{[3,5-dimethyl-4-(piperidin-1-ylcarbonyl)-1H-pyrrol-2-yl]methylene}-2-oxoindoline-5-carboxamide], in that order: under 5 µM and under 5 µM.
For the molecule `CC[C@H](NC(=O)c1ccc2c(c1)/C(=C/c1[nH]c(C)c(C(=O)N3CCC[C@H]3CN3CCCC3)c1C)C(=O)N2)c1ccccc1` [Compound 47, (3Z)-3-[(3,5-dimethyl-4-{[(2S)-2-(pyrrolidin-1-ylmethyl)pyrrolidin-1-yl]carbonyl}-1H-pyrrol-2-yl)methylene]-2-oxo-N-[(1S)-1-phenylpropyl]indoline-5-carboxamide], the IC50 at full length GRK5 (setting [1]) and on GRK5 was 5 to 20 µM each time.
In the case of `Cc1[nH]c(/C=C2\C(=O)Nc3ccc(C(=O)N[C@@H]4CCc5ccccc54)cc32)c(C)c1C(=O)N1CCC[C@@H]1CN1CCCC1` [Compound 30, (3Z)-N-[(1R)-2,3-dihydro-1H-inden-1-yl]-3-[(3,5-dimethyl-4-{[(2R)-2-(pyrrolidin-1-ylmethyl)pyrrolidin-1-yl]carbonyl}-1H-pyrrol-2-yl)methylene]-2-oxoindoline-5-carboxamide], the IC50 at full length GRK5 (setting [1]) and at GRK5 was 5 to 20 µM in each case.
For the molecule `CC[C@H](NC(=O)c1ccc2c(c1)/C(=C/c1[nH]c(C)c(C(=O)N3CCC(N4CCN(C)CC4)CC3)c1C)C(=O)N2)c1ccccc1` [Compound 52, (3Z)3-[(3,5-dimethyl-4-{[4-(4-methylpiperazin-1-yl)piperidin-1-yl]carbonyl}-1H-pyrrol-2-yl)methylene]-2-oxo-N-[(1S)-1-phenylpropyl]indoline-5-carboxamide], the IC50 on full length GRK5 (setting [1]) and on GRK5 was over 30 µM each time.
`C[C@@H](NC(=O)c1ccc2c(c1)/C(=C/Nc1ccc(CN3CCCCC3)cc1)C(=O)N2)c1ccc(Cl)cc1` [Compound 73, (3Z)-N-[(1R)-1-(4-chlorophenyl)ethyl]-2-oxo-3-({[4-(piperidin-1-ylmethyl)phenyl]amino}methylene)indoline-5-carboxamide]: the IC50 on full length GRK5 (setting [1]) and at GRK5 was under 5 µM in each case.
Take `COc1ccc([C@@H](C)NC(=O)c2ccc3c(c2)/C(=C/Nc2ccc(CN4CCCCC4)cc2)C(=O)N3)cc1` [Compound 70, (3Z)-N-[(1R)-1-(4-methoxyphenyl)ethyl]-2-oxo-3-({[4-(piperidin-1-ylmethyl)phenyl]amino}methylene)indoline-5-carboxamide]: the IC50 on full length GRK5 (read-out: GRK5 IC50, 20 nM GRK5, 18.7 µM ATP, 10 µM casein, 12 concentrations, triplicates) is under 5 µM; on GRK5 it was under 5 µM.
Consider `Cc1[nH]c(/C=C2\C(=O)Nc3ccc(C(=O)N[C@@H](C)c4ccccc4)cc32)c(C)c1C(=O)N1CCCCC1` [Compound 54, (3Z)-3-{[3,5-dimethyl-4-(piperidin-1-ylcarbonyl)-1H-pyrrol-2-yl]methylene}-2-oxo-N-[(1S)-1-phenylethyl]indoline-5-carboxamide], for which the IC50 at full length GRK5 (setting [1]) and at GRK5 was over 30 µM throughout.
As to `CC[C@H](NC(=O)c1ccc2c(c1)/C(=C/c1[nH]c(C)c(C(=O)NCCN(CC)CC)c1C)C(=O)N2)c1ccccc1` [Compound 62, (3Z)-3-[(4-{[2-(diethylamino)ethyl]carbamoyl}-3,5-dimethyl-1H-pyrrol-2-yl)methylene]-2-oxo-N-[(1S)-1-phenylpropyl]indoline-5-carboxamide], the IC50 at full length GRK5 (setting [1]) and at GRK5 was over 30 µM in each case.
As for `Cc1ccc([C@@H](C)NC(=O)c2ccc3c(c2)/C(=C/Nc2ccc(CN4CCCCC4)cc2)C(=O)N3)cc1` [Compound 72, (3Z)-N-[(1R)-1-(4-methylphenyl)ethyl]-2-oxo-3-({[4-(piperidin-1-ylmethyl)phenyl]amino}methylene)indoline-5-carboxamide], the IC50 at full length GRK5 (setting [1]) and on GRK5 was under 5 µM each time.
In the case of `CC[C@@H](NC(=O)c1ccc2c(c1)/C(=C/c1[nH]c(C)c(C(=O)N3CCC[C@H]3CN3CCCC3)c1C)C(=O)N2)c1ccccc1` [Compound 46, (3Z)-3-[(3,5-dimethyl-4-{[(2S)-2-(pyrrolidin-1-ylmethyl)pyrrolidin-1-yl]carbonyl}-1H-pyrrol-2-yl)methylene]-2-oxo-N-[(1R)-1-phenylpropyl]indoline-5-carboxamide], the IC50 at full length GRK5 (setting [1]) and on GRK5 was under 5 µM in each case.
